Reference: patent US20260365671A1, “HETEROCYCLIC COMPOUND” (Takeda Pharmaceutical Company Limited, priority 2022, published 2026)

Tests used:
NLRP3 inflammasome = target: T1, NLRP3 inflammasome (Homo sapiens, UniProt Q96P20); assay: IL-1β TR-FRET assay (THP-1 cells differentiated to macrophages with IFN-γ, LPS primed, ATP activated; HTRF); type: cell-based; settings: THP-1 macrophages, 50 ng/mL LPS priming, compound 30 min, 20 mM ATP 2 hours
T1 construct: IL-1beta HTRF
In short: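 THP-1 cells differentiated with 25 ng/mL IFN-γ for 24 h, primed with 50 ng/mL LPS in serum-free medium for 24 h, then treated with compounds for 30 min before 20 mM ATP activation for 2 h at 37 °C. Secreted IL-1β quantified by HTRF; IC50 from logistic fit of % inhibition.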

NF-κB pathway = assay: TNF-α assay (THP-1 cells differentiated to macrophages with IFN-γ, NF-κB pathway activated with LPS; ELISA); type: cell-based, Human; settings: compound 30 min, 50 ng/mL LPS 3 hours
In short: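 THP-1 cells differentiated with 25 ng/mL IFN-γ for 24 h, then 30 min with compounds in serum-free medium. NF-κB activated with 50 ng/mL LPS, 3 h at 37 °C. Supernatant TNF-α by ELISA; IC50 from four-parameter logistic fit of % inhibition.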

[1] = Homo sapiens, THP-1, THP-1 macrophages

T1 sequence (Q96P20 whole entry): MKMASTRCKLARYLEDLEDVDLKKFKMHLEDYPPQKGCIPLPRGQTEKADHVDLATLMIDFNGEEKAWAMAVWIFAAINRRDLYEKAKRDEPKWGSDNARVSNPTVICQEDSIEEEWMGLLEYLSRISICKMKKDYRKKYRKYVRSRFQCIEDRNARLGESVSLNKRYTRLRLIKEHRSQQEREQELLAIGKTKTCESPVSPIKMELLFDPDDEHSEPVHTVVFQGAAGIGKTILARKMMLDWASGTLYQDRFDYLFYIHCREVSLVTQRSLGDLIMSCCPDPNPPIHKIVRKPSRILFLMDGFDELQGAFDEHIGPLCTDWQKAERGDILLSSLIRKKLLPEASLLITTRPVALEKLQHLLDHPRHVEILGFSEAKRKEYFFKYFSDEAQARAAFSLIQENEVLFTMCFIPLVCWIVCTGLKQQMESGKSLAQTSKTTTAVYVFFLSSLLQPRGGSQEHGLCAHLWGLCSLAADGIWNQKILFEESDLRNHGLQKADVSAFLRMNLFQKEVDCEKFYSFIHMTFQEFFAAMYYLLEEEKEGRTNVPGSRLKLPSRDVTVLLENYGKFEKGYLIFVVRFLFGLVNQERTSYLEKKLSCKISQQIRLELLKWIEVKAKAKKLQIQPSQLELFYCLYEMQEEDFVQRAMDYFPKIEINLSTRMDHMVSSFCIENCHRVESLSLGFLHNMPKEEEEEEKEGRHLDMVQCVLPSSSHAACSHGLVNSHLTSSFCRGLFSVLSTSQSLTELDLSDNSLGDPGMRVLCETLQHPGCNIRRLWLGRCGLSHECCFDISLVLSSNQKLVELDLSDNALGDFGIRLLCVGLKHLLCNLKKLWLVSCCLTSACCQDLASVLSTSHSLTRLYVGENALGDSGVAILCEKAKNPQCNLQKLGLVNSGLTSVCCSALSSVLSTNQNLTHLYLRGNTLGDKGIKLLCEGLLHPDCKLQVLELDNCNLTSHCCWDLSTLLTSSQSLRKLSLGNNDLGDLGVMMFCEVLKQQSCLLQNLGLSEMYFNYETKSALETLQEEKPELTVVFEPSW

Row | Structure (SMILES) | IC50 (NLRP3 inflammasome) [nM] | IC50 (NF-κB pathway; [1]) [nM] | IC50 (NF-κB pathway; THP-1 macrophages) [nM]
1 | Cc1cc(C)c(-n2cc3sc(N(C)C)nc3n2)c(O)c1 [Example 49, 2-[5-(dimethylamino)-2H-pyrazolo[3,4-d][1,3]thiazol-2-yl]-3,5-dimethylphenol] | 1300 | > 30000 | 
2 | CCN1C[C@H](F)C[C@@H](Nc2nc3nn(-c4c(O)cc(C)cc4OC(F)F)cc3s2)C1 [Example 51, 3-(difluoromethoxy)-2-(5-{[(3R,5R)-1-ethyl-5-fluoropiperidin-3-yl]amino}-2H-pyrazolo[3,4-d][1,3]thiazol-2-yl)-5-methylphenol] | 2.8 | > 30000 | 
3 | Cc1cc(C)c(-n2cc3sc(NCCN(C)C)nc3n2)c(O)c1 [Example 53, 2-(5-{[2-(dimethylamino)ethyl]amino}-2H-pyrazolo[3,4-d][1,3]thiazol-2-yl)-3,5-dimethylphenol] | 680 | > 30000 | 
4 | Cc1cc(C)c(-n2cc3sc(NCCN4CCOCC4)nc3n2)c(O)c1 [Example 54, 3,5-dimethyl-2-(5-{[2-(morpholin-4-yl)ethyl]amino}-2H-pyrazolo[3,4-d][1,3]thiazol-2-yl)phenol] | 1100 | > 30000 | 
5 | Cc1cc(C)c(-n2cc3sc(NCCC(C)(C)O)nc3n2)c(O)c1 [Example 55, 2-{5-[(3-hydroxy-3-methylbutyl)amino]-2H-pyrazolo[3,4-d][1,3]thiazol-2-yl}-3,5-dimethylphenol] | 1400 | > 10000 | 
6 | CC(=O)NCCCNc1nc2nn(-c3c(C)cc(C)cc3O)cc2s1 [Example 56, N-(3-{[2-(2-hydroxy-4,6-dimethylphenyl)-2H-pyrazolo[3,4-d][1,3]thiazol-5-yl]amino}propyl) acetamide] | 230 | > 30000 | 
7 | Cc1cc(C)c(-n2cc3sc(NC45CCC(O)(CC4)C5)nc3n2)c(O)c1 [Example 57, 4-{[2-(2-hydroxy-4,6-dimethylphenyl)-2H-pyrazolo[3,4-d][1,3]thiazol-5-yl]amino}bicyclo[2.2.1]heptan-1-ol] | 130 | > 10000 | 
8 | COCCN(C)c1nc2nn(-c3c(C)cc(C)cc3O)cc2s1 [Example 61, 2-{5-[(2-methoxyethyl)(methyl)amino]-2H-pyrazolo[3,4-d][1,3]thiazol-2-yl}-3,5-dimethylphenol] | 2000 | > 10000 | 
9 | Cc1cc(O)c(-n2cc3sc(NC[C@@H](C)O)nc3n2)c(C2CC2)c1 [Example 64, 3-cyclopropyl-2-(5-{[(2R)-2-hydroxypropyl]amino}-2H-pyrazolo[3,4-d][1,3]thiazol-2-yl)-5-methylphenol] | 78 | > 10000 | 
10 | Cc1cc(C)c(-n2cc3sc(NCC(C)(C)O)nc3n2)c(O)c1 [Example 66, 2-{5-[(2-hydroxy-2-methylpropyl)amino]-2H-pyrazolo[3,4-d][1,3]thiazol-2-yl}-3,5-dimethylphenol] | 250 | > 30000 | 
11 | Cc1cc(C)c(-n2nc3nc(N[C@@H]4C[C@@H](F)CN(C)C4)sc3c2C)c(O)c1 [Example 70, 2-(5-{[(3R,5R)-5-fluoro-1-methylpiperidin-3-yl]amino}-3-methyl-2H-pyrazolo[3,4-d][1,3]thiazol-2-yl)-3,5-dimethylphenol] | 59 | > 30000 | 
12 | Cc1cc(C)c(-n2cc3sc(NC4CCN(C(=O)OCc5ccccc5)C4)nc3n2)c(O)c1 (stereo not drawn) [Example 77, benzyl 3-{[2-(2-hydroxy-4,6-dimethylphenyl)-2H-pyrazolo[3,4-d][1,3]thiazol-5-yl]amino}pyrrolidine-1-carboxylate] | 470 | > 10000 | 
13 | CCN1C[C@H](F)C[C@@H](Nc2nc3nn(-c4c(O)cc(Cl)cc4C(F)F)cc3s2)C1 [Example 78, 5-chloro-3-(difluoromethyl)-2-(5-{[(3R,5R)-1-ethyl-5-fluoropiperidin-3-yl]amino}-2H-pyrazolo[3,4-d][1,3]thiazol-2-yl)phenol] | 4.3 | > 10000 | 

More lines, now with the values ahead:

Row | IC50 (NLRP3 inflammasome) [nM] | IC50 (NF-κB pathway; [1]) [nM] | IC50 (NF-κB pathway; THP-1 macrophages) [nM] | Structure (SMILES)
14 | 330 | > 10000 |  | Cc1cc(C)c(-n2cc3sc(N[C@@H]4CC[C@H](O)C4)nc3n2)c(O)c1 [Example 46, 2-(5-{[(1R,3S)-3-hydroxycyclopentyl]amino}-2H-pyrazolo[3,4-d][1,3]thiazol-2-yl)-3,5-dimethylphenol or 2-(5-{[(1S,3R)-3-hydroxycyclopentyl]amino}-2H-pyrazolo[3,4-d][1,3]thiazol-2-yl)-3,5-dimethylphenyl (tR1)]
15 | 1200 |  | > 10000 | Cc1cc(C)c(-n2cc3sc(N[C@@H]4CC[C@H](O)C4)nc3n2)c(O)c1 [Example 47, 2-(5-{[(1R,3S)-3-hydroxycyclopentyl]amino}-2H-pyrazolo[3,4-d][1,3]thiazol-2-yl)-3,5-dimethylphenol or 2-(5-{[(1S,3R)-3-hydroxycyclopentyl]amino}-2H-pyrazolo[3,4-d][1,3]thiazol-2-yl)-3,5-dimethylphenol (tR2)]
16 | 130 | > 10000 |  | COc1cc(C)cc(O)c1-n1cc2sc(N[C@@H]3C[C@@H](F)CN(C)C3)nc2n1 [Example 48, 2-(5-{[(3R,5R)-5-fluoro-1-methylpiperidin-3-yl]amino}-2H-pyrazolo[3,4-d][1,3]thiazol-2-yl)-3-methoxy-5-methylphenol]
17 | 12 | > 30000 |  | Cc1cc(O)c(-n2cc3sc(N[C@@H]4C[C@@H](F)CN(C)C4)nc3n2)c(OC(F)F)c1 [Example 50, 3-(difluoromethoxy)-2-(5-{[(3R,5R)-5-fluoro-1-methylpiperidin-3-yl]amino}-2H-pyrazolo[3,4-d][1,3]thiazol-2-yl)-5-methylphenol]
18 | 200 | > 10000 |  | COCCN(c1nc2nn(-c3c(C)cc(C)cc3O)cc2s1)[C@@H]1CCCN(C)C1 [Example 52, 2-(5-{(2-methoxyethyl)[(3R)-1-methylpiperidin-3-yl]amino}-2H-pyrazolo[3,4-d][1,3]thiazol-2-yl)-3,5-dimethylphenol]
19 | 2600 | > 30000 |  | Cc1cnc(-n2nc3nc(N[C@@H]4CCCN(C)C4)sc3c2C)c(O)c1 [Example 58, 5-methyl-2-(3-methyl-5-{[(3R)-1-methylpiperidin-3-yl]amino}-2H-pyrazolo[3,4-d][1,3]thiazol-2-yl)pyridin-3-ol]
20 | 23 | > 30000 |  | CCc1cc(O)c(-n2cc3sc(N[C@@H]4C[C@@H](F)CN(C)C4)nc3n2)c(CC)c1 [Example 59, 3,5-diethyl-2-(5-{[(3R,5R)-5-fluoro-1-methylpiperidin-3-yl]amino}-2H-pyrazolo[3,4-d][1,3]thiazol-2-yl)phenol]
21 | 61 | > 30000 |  | CCc1cc(C)c(-n2cc3sc(N[C@@H]4C[C@@H](F)CN(C)C4)nc3n2)c(O)c1 [Example 60, 5-ethyl-2-(5-{[(3R,5R)-5-fluoro-1-methylpiperidin-3-yl]amino}-2H-pyrazolo[3,4-d][1,3]thiazol-2-yl)-3-methylphenol]
22 | 120 | > 10000 |  | Cc1cc(C)c(-n2cc3sc(N[C@H]4CNC[C@H](F)C4)nc3n2)c(O)c1 [Example 62, 2-(5-{[(3R,5R)-5-fluoropiperidin-3-yl]amino}-2H-pyrazolo[3,4-d][1,3]thiazol-2-yl)-3,5-dimethylphenol]
23 | 3400 | > 10000 |  | Cc1cnc(-n2cc3sc(N[C@@H]4CCCN(C)C4)nc3n2)c(O)c1 [Example 63, 5-methyl-2-(5-{[(3R)-1-methylpiperidin-3-yl]amino}-2H-pyrazolo[3,4-d][1,3]thiazol-2-yl)pyridin-3-ol]
24 | 8.3 | > 30000 |  | Cc1cc(O)c(-n2cc3sc(N[C@@H]4C[C@@H](F)CN(C)C4)nc3n2)c(C2CC2)c1 [Example 65, 3-cyclopropyl-2-(5-{[(3R,5R)-5-fluoro-1-methylpiperidin-3-yl]amino}-2H-pyrazolo[3,4-d][1,3]thiazol-2-yl)-5-methylphenol]
25 | 950 | > 30000 |  | Cc1cc(C)c(-n2cc3sc(N[C@@H]4CCN(CC(F)F)C4)nc3n2)c(O)c1 [Example 67, 2-(5-{[1-(2,2-difluoroethyl)pyrrolidin-3-yl]amino}-2H-pyrazolo[3,4-d][1,3]thiazol-2-yl)-3,5-dimethylphenol]
26 | 220 | > 10000 |  | Cc1cc(C)c(-n2cc3sc(NC4CCN(C(=O)CC(F)F)C4)nc3n2)c(O)c1 (stereo not drawn) [Example 68, 3,3-difluoro-1-(3-{[2-(2-hydroxy-4,6-dimethylphenyl)-2H-pyrazolo[3,4-d][1,3]thiazol-5-yl]amino}pyrrolidin-1-yl)propan-1-one]
27 | 250 | > 10000 |  | Cc1cc(C)c(-n2cc3sc(NC4CCN(C(=O)OCC(Cl)(Cl)Cl)C4)nc3n2)c(O)c1 (stereo not drawn) [Example 69, 2,2,2-trichloroethyl 3-{[2-(2-hydroxy-4,6-dimethylphenyl)-2H-pyrazolo[3,4-d][1,3]thiazol-5-yl]amino}pyrrolidine-1-carboxylate]
28 | 16 | > 30000 |  | CN1C[C@H](F)C[C@@H](Nc2nc3nn(-c4c(O)cc(Cl)cc4C(F)F)cc3s2)C1 [Example 75, 5-chloro-3-(difluoromethyl)-2-(5-{[(3R,5R)-5-fluoro-1-methylpiperidin-3-yl]amino}-2H-pyrazolo [3,4-d][1,3]thiazol-2-yl)phenol]
29 | 1600 | > 30000 |  | CO[C@@H]1C[C@@H](Nc2nc3nn(-c4c(C)cc(C)cc4O)cc3s2)CN(C)C1 [Example 76]
30 | 1100 | > 30000 |  | Cc1cc(C)c(-n2cc3sc(N[C@@H]4CN(C)C[C@H]4F)nc3n2)c(O)c1 [Example 79, 2-(5-{[(3R,4R)-4-fluoro-1-methylpyrrolidin-3-yl]amino}-2H-pyrazolo[3,4-d][1,3]thiazol-2-yl)-3,5-dimethylphenol]
